In ChEMBL document CHEMBL1817645, “Synthesis and pharmacological evaluation of 1-alkyl-N-[2-ethyl-2-(4-fluorophenyl)butyl]piperidine-4-carboxamide derivatives as novel antihypertensive agents” (Bioorg Med Chem, 2011):
The source made the active and inactive calls. No cut-off for these calls is given here.

tested on: Rattus norvegicus; experiment: Toxicity in spontaneously hypertensive rat assessed as effect on reflex tachycardia at 30 mg/kg, po after 8 hrs; format: organism-based; design: dose 30 mg/kg, route oral; details: in vivo

SMILES	Activity
CCC(CC)(CNC(=O)C1CCN(CCc2ccccc2)CC1)c1ccc(F)cc1	Non-toxic

target: Voltage-dependent T-type calcium channel subunit alpha-1G (Homo sapiens, UniProt O43497); experiment: Inhibition of human Cav3.1 alpha1G expressed in HEK293 cells assessed as inhibition of calcium influx by FLIPR assay; format: cell-based; details: not given
Sequence (O43497 whole entry): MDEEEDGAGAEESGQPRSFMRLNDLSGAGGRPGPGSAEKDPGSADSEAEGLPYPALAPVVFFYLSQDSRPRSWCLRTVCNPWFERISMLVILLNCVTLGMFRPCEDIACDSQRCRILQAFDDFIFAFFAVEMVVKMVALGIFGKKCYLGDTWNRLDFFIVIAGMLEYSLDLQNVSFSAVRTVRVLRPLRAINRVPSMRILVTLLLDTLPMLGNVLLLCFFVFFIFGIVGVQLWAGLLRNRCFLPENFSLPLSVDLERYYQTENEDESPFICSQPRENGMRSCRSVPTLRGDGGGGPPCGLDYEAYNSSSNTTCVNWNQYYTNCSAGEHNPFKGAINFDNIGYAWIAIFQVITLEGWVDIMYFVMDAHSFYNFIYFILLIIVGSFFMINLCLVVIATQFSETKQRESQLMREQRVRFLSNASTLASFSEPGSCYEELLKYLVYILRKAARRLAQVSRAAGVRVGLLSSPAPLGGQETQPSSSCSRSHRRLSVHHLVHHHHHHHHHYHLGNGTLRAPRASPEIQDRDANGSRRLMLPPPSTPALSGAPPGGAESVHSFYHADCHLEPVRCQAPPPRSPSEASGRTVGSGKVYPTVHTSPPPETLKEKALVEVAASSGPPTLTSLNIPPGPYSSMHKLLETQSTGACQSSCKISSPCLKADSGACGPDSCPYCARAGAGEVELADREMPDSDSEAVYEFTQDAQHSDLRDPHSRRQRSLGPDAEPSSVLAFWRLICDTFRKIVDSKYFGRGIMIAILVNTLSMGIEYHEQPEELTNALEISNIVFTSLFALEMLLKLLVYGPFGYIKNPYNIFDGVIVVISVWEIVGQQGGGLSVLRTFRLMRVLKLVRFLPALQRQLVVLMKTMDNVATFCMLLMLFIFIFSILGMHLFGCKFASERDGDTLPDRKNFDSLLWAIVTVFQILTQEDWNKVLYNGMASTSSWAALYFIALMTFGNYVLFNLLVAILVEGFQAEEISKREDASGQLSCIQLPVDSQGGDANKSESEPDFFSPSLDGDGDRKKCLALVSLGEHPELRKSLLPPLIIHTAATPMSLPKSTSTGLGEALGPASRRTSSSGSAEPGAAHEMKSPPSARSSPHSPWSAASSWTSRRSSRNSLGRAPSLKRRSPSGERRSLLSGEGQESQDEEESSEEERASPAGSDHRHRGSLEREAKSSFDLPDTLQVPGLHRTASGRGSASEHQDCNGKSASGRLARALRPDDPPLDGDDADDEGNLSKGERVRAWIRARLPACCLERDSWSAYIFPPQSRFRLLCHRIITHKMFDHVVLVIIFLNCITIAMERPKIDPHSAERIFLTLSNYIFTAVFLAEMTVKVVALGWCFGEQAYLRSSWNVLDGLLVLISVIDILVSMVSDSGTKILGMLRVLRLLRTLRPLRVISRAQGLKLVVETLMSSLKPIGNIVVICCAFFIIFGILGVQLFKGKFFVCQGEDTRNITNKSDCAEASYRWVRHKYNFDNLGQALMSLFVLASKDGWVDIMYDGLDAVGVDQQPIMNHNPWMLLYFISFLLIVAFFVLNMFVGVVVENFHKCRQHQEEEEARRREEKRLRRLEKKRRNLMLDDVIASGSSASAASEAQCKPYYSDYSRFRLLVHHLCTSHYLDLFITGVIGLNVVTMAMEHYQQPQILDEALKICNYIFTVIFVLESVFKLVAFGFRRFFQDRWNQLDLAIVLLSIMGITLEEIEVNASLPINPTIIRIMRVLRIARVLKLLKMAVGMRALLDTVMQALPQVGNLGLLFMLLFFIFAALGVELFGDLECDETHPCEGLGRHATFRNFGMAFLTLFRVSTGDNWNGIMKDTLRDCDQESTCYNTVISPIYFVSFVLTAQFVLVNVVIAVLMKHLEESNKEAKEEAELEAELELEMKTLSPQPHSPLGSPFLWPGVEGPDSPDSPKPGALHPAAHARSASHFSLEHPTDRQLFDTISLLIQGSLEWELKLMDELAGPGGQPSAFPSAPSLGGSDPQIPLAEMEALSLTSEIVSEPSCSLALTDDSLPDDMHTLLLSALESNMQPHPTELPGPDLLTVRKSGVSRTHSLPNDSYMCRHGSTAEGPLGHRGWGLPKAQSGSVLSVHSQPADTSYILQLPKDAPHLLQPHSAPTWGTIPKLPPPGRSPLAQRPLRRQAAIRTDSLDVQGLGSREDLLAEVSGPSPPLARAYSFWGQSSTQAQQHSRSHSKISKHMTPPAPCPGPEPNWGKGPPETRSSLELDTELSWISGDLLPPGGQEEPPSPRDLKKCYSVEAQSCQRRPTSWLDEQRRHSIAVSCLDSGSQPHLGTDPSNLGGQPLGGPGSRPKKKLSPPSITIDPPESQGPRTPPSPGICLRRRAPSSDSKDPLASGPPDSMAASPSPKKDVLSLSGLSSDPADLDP

IC50 [nM]	SMILES
250	CCC(CC)(CNC(=O)C1CCN(CCCCc2ccccc2)CC1)c1ccc(F)cc1
2200	O=C(NCC1(c2ccc(F)cc2)CCOCC1)C1CCN(Cc2ccccc2)CC1
390	O=C(NCC1(c2ccc(F)cc2)CCC1)C1CCN(Cc2ccccc2)CC1
89	CCC(CC)(CNC(=O)C1CCN(CCc2ccccc2)CC1)c1ccc(F)cc1
3000	O=C(NCC1(c2ccc(F)cc2)CCCCC1)C1CCCCN1Cc1ccccc1 (configuration not stated)
85	CCC(CC)(CNC(=O)C1CCN(Cc2ccccc2)CC1)c1ccc(F)cc1
370	CCCC(CCC)(CNC(=O)C1CCN(Cc2ccccc2)CC1)c1ccc(F)cc1
130	CCC(CC)(CNC(=O)C1CCN(Cc2cccc(F)c2)CC1)c1ccc(F)cc1
2000	O=C(CCC1(c2ccc(F)cc2)CCCCC1)C1CCN(Cc2ccccc2)CC1
860	O=C(CC1(c2ccc(F)cc2)CCCCC1)NC1CCN(Cc2ccccc2)CC1
240	CCC(CC)(CNC(=O)C1CCN(CCCc2ccccc2)CC1)c1ccc(F)cc1
320	COc1ccc(CN2CCC(C(=O)NCC3(c4ccc(F)cc4)CCCCC3)CC2)cc1OC
1200	O=C(NCC1(c2ccc(F)cc2)CCCCC1)C1CCCN(Cc2ccccc2)C1 (configuration not stated)
130	CC(C)(CNC(=O)C1CCN(Cc2ccccc2)CC1)c1ccc(F)cc1
220	O=C(NCC1(c2ccc(F)cc2)CCCC1)C1CCN(Cc2ccccc2)CC1
1200	Fc1ccc(C2(CNCC3CCN(Cc4ccccc4)CC3)CCCCC2)cc1
510	O=C(NCC1(c2ccc(F)cc2)CCCCC1)C1CCN(Cc2ccccc2)CC1
750	CN(CC1(c2ccc(F)cc2)CCCCC1)C(=O)C1CCN(Cc2ccccc2)CC1

More lines, now with the values behind:

SMILES	IC50 [nM]
CCC(CC)(CNC(=O)C1CCN(Cc2cccc(OC)c2)CC1)c1ccc(F)cc1	94
CCC(CC)(CNC(=O)C1CCN(CCc2cccc(F)c2)CC1)c1ccc(F)cc1	130
CCC(CC)(CNC(=O)C1CCN(CCc2ccccc2F)CC1)c1ccc(F)cc1	90
CCC(CC)(CNC(=O)C1CCN(Cc2ccccc2F)CC1)c1ccc(F)cc1	36
CCC(CC)(CNC(=O)C1CCN(CCc2cccc(OC)c2)CC1)c1ccc(F)cc1	140
CCC(CC)(CNC(=O)C1CCN(CCc2ccc(F)cc2)CC1)c1ccc(F)cc1	180
CCC(CC)(CNC(=O)C1CCN(CCc2ccccc2OC)CC1)c1ccc(F)cc1	170
CCC(CC)(CNC(=O)C1CCN(CCOc2ccccc2)CC1)c1ccc(F)cc1	260
CCC(CC)(CNC(=O)C1CCN(Cc2ccc(OC)cc2)CC1)c1ccc(F)cc1	200
CCC(CC)(CNC(=O)C1CCN(CCc2ccc(OC)cc2)CC1)c1ccc(F)cc1	770
CCC(CC)(CNC(=O)C1CCN(Cc2ccc(F)cc2)CC1)c1ccc(F)cc1	82
CCC(CC)(CNC(=O)C1CCN(Cc2ccccc2OC)CC1)c1ccc(F)cc1	120

tested on: Rattus norvegicus; experiment: Antihypertensive activity in spontaneously hypertensive rat assessed as reduction of mean blood pressure at 30 mg/kg, po; format: functional; design: scale not given: the % may be the effect or the level left; details: not given

SMILES	Activity [%]
CCC(CC)(CNC(=O)C1CCN(CCc2ccccc2)CC1)c1ccc(F)cc1	22

tested on: not listed separately; experiment: Bradycardic activity in Hartley guinea pig right atrial muscles assessed as reduction of initial spontaneous beat rate after 30 mins; format: functional; details: Cavia porcellus, Muscle tissue, 0.5 h

SMILES	EC30 [nM]
CCC(CC)(CNC(=O)C1CCN(Cc2ccccc2F)CC1)c1ccc(F)cc1	4200
CCC(CC)(CNC(=O)C1CCN(CCc2ccccc2)CC1)c1ccc(F)cc1	2500
COCC(=O)O[C@]1(CCN(C)CCCc2nc3ccccc3[nH]2)CCc2cc(F)ccc2[C@@H]1C(C)C [MIBEFRADIL]	2900
COc1ccc(CN2CCC(C(=O)NCC3(c4ccc(F)cc4)CCCCC3)CC2)cc1OC	2100

tested on: Rattus norvegicus; experiment: Antihypertensive activity in spontaneously hypertensive rat assessed as reduction of mean blood pressure at 30 mg/kg, po after 8 hrs; format: functional, organism-based; design: dose 30 mg/kg; details: not given

SMILES	Activity
CCC(CC)(CNC(=O)C1CCN(CCc2ccccc2)CC1)c1ccc(F)cc1	Active
